Experimental data taken from patent publication US11959079B2, “Methods for treating apolipoprotein E4-associated disorders” (priority 2009, dated 2024).
“Also recorded” adds a separate entry of the source.

Assays:
Assay type in all cases: in vivo
female apoE4-KI mice [1] = assay: Morris water maze, spatial learning and memory, apoE4-KI mice
Experimental: (§1) Human apoE3-KI and apoE4-KI mice (Sullivan et al., 2004) were from Taconic. Tau−/− mice (Dawson et al., 2001) were backcrossed onto the mE−/− background, and mE−/−Tau−/− mice were crossed with apoE4(Δ272-299)mE−/− Tau+/+ mice. Studies were conducted on female mice at 1, 3, 6, 12, 16, or 21 months of age. All mice were on a C57BL/6 genetic background. Some apoE4-KI and apoE4(Δ272-299)mE−/−Tau+/+ mice received daily intraperitoneal injections of pentobarbital (20 mg/kg) or saline in their home cages for 21 days before the first day of Morris Water Maze (MWM) training and 1 h after daily training. Some apoE4(Δ272-299)mE−/−Tau−/− mice were given daily injections of picrotoxin (1 mg/kg) or saline intraperitoneally in their home cages for 3 days before MWM training and 30 min before daily training. Brain tissues were collected after a 1-min transcardial perfusion with 0.9% NaCl. One hemibrain from each mouse was fixed in 4% paraformaldehyde, sectioned (30 μm) with a microtome, and immunostained as described below. All experiments were performed in accordance with NIH and institutional guidelines.
(§2) The water maze pool (diameter, 122 cm) contained opaque water (22-23° C.) with a platform 10 cm in diameter. The platform was submerged 1.5 cm during hidden platform sessions (Harris et al., 2003; Raber et al., 1998; Roberson et al., 2007) and marked with black-and-white-striped mast (15 cm high) during cued training sessions. Mice were trained to locate the hidden platform (hidden days 1-5) and the cued platform (visible days 1-3) in two daily sessions (3.5 h apart), each consisting of two 60-s trials (hidden and cued training) with a 15-min intertrial interval. The platform location remained constant in the hidden platform sessions but was changed for each cued platform session. Entry points were changed semirandomly between trials. Twenty-four, 72, and 96 hours after the last hidden platform training, a 60-s probe trial (platform removed) was performed. Entry points for the probe trial were in the west quadrant, and the target quadrant was in the southeast quadrant. Performance was monitored with an EthoVision video-tracking system (Noldus Information Technology).

[2] = test system: apoE4(Δ272-299)mE−/−Tau+/+ mice; assay: Morris water maze, apoE4(Δ272-299)mE−/−Tau+/+ mice; conditions: 12-month-old female mice, 20 mg/kg i.p., 21 days before and every day during MWM, vs saline
Experimental: as §1
The water maze pool (diameter, 122 cm) contained opaque water (22-23° C.) with a platform 10 cm in diameter. […] Performance was monitored with an EthoVision video-tracking system (Noldus Information Technology).

female apoE4-KI mice [3] = assay: Quantification of GAD67-positive hilar GABAergic interneurons, apoE4-KI mice; conditions: 16-month-old female apoE4-KI mice; 20 mg/kg i.p.
Experimental: as §1, with “Brain tissues were collected after a 1-min transcardial perfusion with 0.9% NaCl. One hemibrain from each mouse was fixed in 4% paraformaldehyde, sectioned (30 μm) with a microtome, and immunostained as described below. All experiments were performed in accordance with NIH and institutional guidelines.” left out
(§3) Sliding microtome sections (30 μm) were immunostained with the following primary antibodies: polyclonal goat anti-human apoE (1:8000 for fluorescence; Calbiochem), rabbit anti-neuropeptide Y (1:8000 for […] (DAB); ImmunoStar), rat anti-somatostatin (1:100 for DAB; Chemicon), mouse anti-GAD67 (1:1000 for DAB; Chemicon), mouse anti-MAP2 (1:500 for fluorescence; Sigma), mouse anti-synaptophysin (1:500 for fluorescence; DakoCytomation), and phosphorylation-dependent monoclonal antibody AT8 (p-Ser202; 1:100 for DAB; Endogen). […]

[4] = test system: apoE4(Δ272-299)mE−/−Tau−/− mice; assay: Morris water maze, apoE4(Δ272-299)mE−/−Tau−/− mice
Experimental: as §1
as §2, with “Entry points for the probe trial were in the west quadrant, and the target quadrant was in the southeast quadrant.” left out

wildtype mice = assay: Morris water maze, wildtype mice; conditions: 12-month-old female wildtype mice, 1 mg/kg i.p., 3 days before and every day during MWM
Experimental: as §2

[5] = test system: apoE4(Δ272-299)mE−/−Tau−/− mice; assay: Quantification of GAD67-positive hilar GABAergic interneurons, apoE4(Δ272-299)mE−/−Tau−/− mice; conditions: 12-month-old female mice, 1 mg/kg i.p., 3 days before and every day during MWM
Experimental: as §1, with “Brain tissues were collected after a 1-min transcardial perfusion with 0.9% NaCl. One hemibrain from each mouse was fixed in 4% paraformaldehyde, sectioned (30 μm) with a microtome, and immunostained as described below. All experiments were performed in accordance with NIH and institutional guidelines.” left out
as §3

mE−/−Tau+/+ mice = assay: Morris water maze, mE−/−Tau+/+ mice; conditions: 12-month-old female mE−/−Tau+/+ mice, 1 mg/kg i.p., 3 days before and every day during MWM
Experimental: as §2

Compound	memory deficits in probe trial (target quadrant and target cross tests) (female apoE4-KI mice [1]; 16-month-old apoE4-KI mice, probe trial 96 h after last hidden session, 20 mg/kg i.p.)	learning and memory deficits (female apoE4-KI mice [1]; 16-month-old female apoE4-KI mice, 20 mg/kg i.p. daily, 21 days before and during MWM)	learning curve (escape latency, hidden platform days) (female apoE4-KI mice [1]; 16-month-old female apoE4-KI mice, 20 mg/kg i.p., 21 days before and daily during MWM, vs saline)	learning deficit / learning curve (hidden platform) (female apoE4-KI mice [1]; 21-month-old female apoE4-KI mice, 20 mg/kg, 21 days before and daily during MWM, vs saline, 20 mg/kg)	learning deficit (hidden platform sessions) [2]	number of hilar GABAergic interneurons (female apoE4-KI mice [3])	learning curve (hidden platform) ([4]; 1 mg/kg i.p., 3 days before and daily during MWM, vs saline-treated controls)	target crossing test in probe trial ([4]; probe trial 24 h after last hidden session, 1 mg/kg i.p.)	rescue (prevention) of learning and memory deficits by tau removal ([4]; subthreshold dose 1 mg/kg i.p., 3 days before and daily during MWM)	learning and memory performance (wildtype mice)	learning and memory performance (wildtype mice; listed as Picrotoxin)	number of hilar GABAergic interneurons (GAD67-positive) [5]	learning and memory performance (mE−/−Tau+/+ mice)	learning and memory performance (mE−/−Tau+/+ mice; listed as Picrotoxin)
CCCC(C)C1(CC)C(=O)NC(=O)NC1=O (centres unmarked) [pentobarbital]	rescued memory deficits	rescued the learning and memory deficits	differed from that of saline-treated apoE4-KI mice (p<0.05, repeated-measures ANOVA) but resembled that of untreated apoE3-KI mice	rescued; also recorded: differed from that of saline-treated apoE4-KI mice (p<0.05, repeated-measures ANOVA) but resembled that of saline-treated apoE3-KI mice	rescued the learning and memory deficits; also recorded: rescued the learning deficit; also recorded: learned better than saline-treated apoE4(Δ272-299)mE−/−Tau+/+ mice (p<0.01)	did not alter	–	–	–	–	–	–	–	–
picrotoxin	–	–	–	–	–	–	resembled that of saline-treated apoE4(Δ272-299)mE−/−Tau+/+ mice	performed significantly worse	abolished	does not alter the learning and memory performance	did not alter	unaltered; also recorded: does not alter	does not alter the learning and memory performance	did not alter
